These are literature values, as cited in patent publication US20230255982A1 (priority 2020, published 2023).

Like-named read-outs stand apart in the source and are kept apart here. Marks after values point to notes of the source that are not given here.

This data set concerns stage 3-4 CKD patients with diabetic nephropathy. The note with it: ASCEND.

On to `COc1ccccc1Oc1c(NS(=O)(=O)c2ccc(C)cn2)nc(-c2ccncc2)nc1OC` [Avosentan], for which, under “25 mg, N = 455”, the “Occurrence of CHF” value is 5.9%* and the “Occurrence of ESRD” value is recorded as 4.4%. Also, for the setting “50 mg, N = 478”, the “Occurrence of CHF” value is given as 6.1%* and the “Occurrence of ESRD” value is on record as 5.0%.
